# How the values were obtained:
# [1] = test system: mPTPB transfected Raw264.7 cells; assay type: cell-based; settings: 10 μM
# [2] = biological target: mPTPB (Mycobacterium tuberculosis, UniProt I6WXK4); assay: mPTPB catalyzed para-nitrophenyl phosphate hydrolysis inhibition; assay type: biochemical; settings: for activity at 100 μM: 100 μM compound
# [3] = test system: human PTPs; assay: Specificity for mPTPB over panel of human PTPs; assay type: biochemical; settings: mPTPB versus PTP1B, SHP2, SHP1, PTP-Meg2, CD45, PTPε, VHR, Laforin
# Sequence of mPTPB (I6WXK4 whole entry, looked up): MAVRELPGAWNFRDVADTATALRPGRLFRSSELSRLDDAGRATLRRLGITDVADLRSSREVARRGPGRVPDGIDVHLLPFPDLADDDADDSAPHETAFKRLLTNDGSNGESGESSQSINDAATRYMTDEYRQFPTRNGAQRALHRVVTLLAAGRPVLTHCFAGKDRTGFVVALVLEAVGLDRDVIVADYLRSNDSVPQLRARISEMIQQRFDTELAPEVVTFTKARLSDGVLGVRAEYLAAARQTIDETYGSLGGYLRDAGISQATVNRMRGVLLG
compound,measurement,setting,value
O=C(O)c1cc2sc(Nc3ccccc3)nc2cc1O [11a],effects on Erk1/2 and Akt phosphorylation,[1],has no such effects
same,fold more active than 11b,[2],3 fold
O=C(O)c1cc2sc(Nc3cccc(Br)c3)nc2cc1O [11h],Akt phosphorylation,"[1]; 5 μM, dose dependent",decreased
same,Erk1/2 phosphorylation,"[1]; 5 μM, dose dependent",increased
same,fold preference for mPTPB against human PTPs,[3],over 20 fold
same,Ki,[2],2.2 ± 0.1 µM
same,fold increase in potency in comparison to 11a,[2],12 fold
same,mode of inhibition,"[2]; mPTPB, against pNPP",noncompetitive inhibitor
same,fold improvement of salicylic acid mPTPB inhibitory activity,"[2]; mPTPB, versus salicylic acid","27,500 fold"
O=C1COc2cc(O)c(C(=O)O)cc2N1 [compound 7],activity at 100 μM,[2]; mPTPB,did not exhibit activity
O=C(O)c1cc2[nH]c(=O)oc2cc1O [compound 6],activity at 100 μM,[2]; mPTPB,did not exhibit activity
O=C(O)CN1CC(=O)Oc2cc(O)c(C(=O)O)cc21 [compound 8],activity at 100 μM,[2]; mPTPB,did not exhibit activity
O=C(O)c1cc2nc(-c3ccccc3)oc2cc1O [compound 9],IC50,[2],20 to 30 µM
O=C(O)c1cc2[nH]c(-c3ccccc3)nc2cc1O [compound 10],IC50,[2],20 to 30 µM

# Source: PMC4259018 (MedChemComm, 2014)
